Test system: CDKN1A
Assay: qPCR of senescence marker CDKN1A
Type: cell-based, human
Settings: for CDKN1A expression, fold change vs Control: day 15, n=4; for decrease of senescence marker CDKN1A (Ctrl vs shRNA): primary T cells, day 15
Text: A new set of shRNAs were cloned into the pSIH backbone, where the shRNA expression is driven by the H1 promoter. The vector was also engineered to co-express GFP and Puromycin resistance through a T2A sequence. The new shRNA sequences were: shUSP16 #1 5′-[…]-3′ (SEQ ID NO: 8) and shUSP16 #2 5′-[…]-3′ (SEQ ID NO: 9). Primary T cells were activated as described (Example 3), transduced with a lentivirus encoding either a shUSP16 #1, shUSP16 #2 or a scrambled shRNA (Control) and cells were selected with puromycin at day 6. Between 1 and 1.25×10^6 cells were plated post-puromycin selection with a purity higher than 90% and counted every 2-4 days by Trypan Blue exclusion using Vi-CELL XR cell counter (Beckman Coulter). qPCR was performed to verify downregulation of USP16 expression (FIG. 14A) and the expression of the senescent marker CDKN1A (FIG. 14B) at day 15. Proliferation was measured as fold increased compared to shControl at day 15 post-activation. The experiment was repeated using primary T cells obtained from buffy coats of 3 different healthy donors.
Primary T cells were activated as described (Example 3), transduced with a lentivirus encoding for either a CD19.CAR or a GD2.CAR co-expressing shUSP16 #1, shUSP16 #2 or a scrambled shRNA (Control). Fifteen days post-activation, T cells were collected and qPCR performed. TaqMan probes detecting CDKN1A, CDKN2A (FIGS. 26A and 26B) (fold change GD2.CAR (n=4): CDKN1A Control vs shUSP #1: 0.4360, p<0.0001, and Control vs shUSP16 #2: 3.036, p=0.004 respectively. Fold change CD19.CAR (n=4): CDKN2a, CDKN1A Control vs shUSP #1: 0.6906, p=0.0026; 0.7228, p=0.0297 and Control vs shUSP16 #2: 0.8385, p=0.2325; 0.7017, p=0.0021), TCF7, LEF1, and Axin-2 (FIGS. 27A and B) were analyzed in GD2.CAR and CD19.CAR-expressing cells, respectively. ACTB was used as internal control. (GD2.CAR (n=4) TCF7, LEF1 and Axin-2: Control vs shUSP #1: 1.914 p=0.0512; 1.795 p=0.0323; 3.269 p=0.15 and Control vs shUSP16 #2: 1.284 p=0.0494; 1.718 p=0.0586; 2.035p=0.235, respectively. Fold change CD19.CAR (n=4): TCF7, LEF1 and Axin-2: Control vs shUSP #1: 1.528, p=0.0277; 1.82, p=0.0449; 1.998, p=0.031 and Control vs shUSP16 #2: 1.18, p=0.2002; 1.579, p=0.0632; 1.261, p=0.2382). USP16 downregulation in CAR-T cells results in a decreased expression of senescence markers and an increase in the expression of genes associated with the activation/increased signaling of the WNT pathway, indicating its importance in delaying cellular senescence and increasing self-renewal.

Substance	CDKN1A expression, fold change vs Control (CD19.CAR)	CDKN1A expression, fold change vs Control (GD2.CAR)	decrease of senescence marker CDKN1A (Ctrl vs shRNA) [%]
shUSP16 #1: shRNA targeting USP16, 5′-GACTGTAAGACTGACAATAAA-3′ (SEQ ID NO: 8), pSIH backbone or co-expressed in CAR plasmid	0.7228	0.4360	23
shUSP16 #2: shRNA targeting USP16, 5′-TATATCAGTTCACCCGTAAT-3′ (SEQ ID NO: 9), pSIH backbone or co-expressed in CAR plasmid	0.7017	3.036	37

— patent publication US20210290680A1, “METHODS AND COMPOSITIONS FOR MODULATING CELLULAR AGING” (Dorian Therapeutics, Inc., priority 2019, published 2021)
